In PubChem BioAssay AID743334 (Broad Institute, 2014):
Activity calls are given as the source filed them.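 How the source made its calls: active means curve reaches 40% rise within the top valid dose, in every run; inconclusive means runs give conflicting calls; inactive means opposite-direction activity, or every run inactive.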

Test system: not listed separately
Assay: statin-free myotube ATP level counter-assay – cell-based, no simvastatin, luminescence, dry powder, counter-screen for statin myotoxicity suppressor project, dose response (AID 743334)
Conditions: C2C12 myotubes ATP, CellTiter-Glo luminescence, 48 h; at 19.5 µM (top of the series)
In the case of COc1ccc(S(=O)(=O)Nc2cccc3c2O[C@H](CN(C)C(=O)Nc2ccc(F)cc2)[C@H](C)CN([C@@H](C)CO)C3=O)cc1, the ATP level change, positive = increase is reported as 14.4% (inactive).
With C[C@H]1CN([C@@H](C)CO)S(=O)(=O)c2ccc(C#Cc3ccc(F)cc3)cc2O[C@@H]1CN(C)S(=O)(=O)c1cn(C)cn1 the ATP level change, positive = increase was 6.04% (inactive).
For Cc1ccc(S(=O)(=O)N(C)C[C@@H]2Oc3ccc(NS(=O)(=O)c4ccc(Cl)cc4)cc3C(=O)N([C@H](C)CO)C[C@@H]2C)cc1, the ATP level change, positive = increase was -0.772% (inactive).
With C[C@@H]1CN([C@@H](C)CO)C(=O)c2cccc(NC(=O)Nc3ccc4c(c3)OCO4)c2O[C@H]1CN(C)Cc1ccc(C(=O)Nc2ccccc2N)cc1 the ATP level change, positive = increase was 16.4% (inactive).
With C[C@H]1CN([C@@H](C)CO)C(=O)c2cc(N(C)C)ccc2O[C@@H]1CN(C)Cc1ccc(C(=O)Nc2ccccc2N)cc1 the ATP level change, positive = increase was 3.03% (inactive).
For C[C@@H]1CN([C@H](C)CO)C(=O)Cc2cc(NS(=O)(=O)c3ccc(Cl)cc3)ccc2O[C@H]1CN(C)Cc1ccccc1, the ATP level change, positive = increase was 13% (inactive).

Same assay, conditions: C2C12 myotubes ATP, CellTiter-Glo luminescence, 48 h; at 21 µM (top of the series)
In the case of Cc1noc(C)c1S(=O)(=O)Nc1ccc2c(c1)CC(=O)N([C@H](C)CO)C[C@@H](C)[C@@H](CN(C)Cc1ccc(-c3ccccc3)cc1)O2, the ATP level change, positive = increase is reported as 10.4% (inactive).

Same assay, conditions: C2C12 myotubes ATP, CellTiter-Glo luminescence, 48 h; active compounds read high
With C[C@@H]1CN([C@H](C)CO)C(=O)c2cc(NC(=O)Cc3cn(C)c4ccccc34)ccc2O[C@H]1CN(C)Cc1ccc(C(=O)Nc2ccccc2N)cc1 the max activity was 9.28% (inactive).
In the case of N#C[C@@H]1[C@H](c2ccc(-c3cccc(F)c3)cc2)[C@H](CO)N1C(=O)NC1CCCC1, the max activity is reported as -18.6% (inactive).
With C[C@H](CO)N1C[C@H](C)[C@H](CN(C)Cc2ccc(C(=O)Nc3ccccc3N)cc2)Oc2ccc(NC(=O)Nc3cccc4ccccc34)cc2C1=O the max activity was -0.211% (inactive).
For C[C@H]1CN([C@@H](C)CO)C(=O)Cc2cc(NC(=O)CCCCCC(=O)Nc3ccccc3N)ccc2O[C@H]1CN(C)Cc1ccc(Oc2ccccc2)cc1, the max activity was -10.2% (inactive).
In the case of CN(C)C(=O)c1cccc(-c2ccc([C@@H]3[C@@H](C#N)N(C(=O)C4CCCC4)[C@@H]3CO)cc2)c1, the max activity is reported as -5.88% (inactive).
In the case of N#C[C@H]1[C@H](c2ccc(-c3cccc(F)c3)cc2)[C@H](CO)N1C(=O)NC1CCCC1, the max activity is reported as -7.45% (inactive).
In the case of CN1C(=O)c2cc(NC(=O)c3ccc(F)c(F)c3)ccc2OC[C@H]2O[C@@H](CC(=O)Nc3ccc4c(c3)COC4)CC[C@@H]21, the max activity is reported as 12.6% (inactive).
For CCCNC(=O)N1[C@H](CO)[C@H](c2ccccc2)[C@@H]1C#N, the max activity was -8.33% (inactive).
For N#C[C@H]1[C@H](c2ccc(C#Cc3ccc(F)cc3)cc2)[C@H](CO)N1c1nc(-c2ccccc2)cs1, the max activity was 9.97% (inactive).
For C[C@H](CO)N1C[C@H](C)[C@H](CN(C)Cc2ccc(C(=O)Nc3ccccc3N)cc2)Oc2ccc(N(C)C)cc2C1=O, the max activity was -24.5% (inactive).
With N#C[C@@H]1[C@@H](c2ccc(C#CC3CCCC3)cc2)[C@H](CO)N1S(=O)(=O)c1ccccc1 the max activity was -8.85% (inactive).
In the case of C[C@H](CO)N1C[C@H](C)[C@H](CN(C)Cc2ccc(Oc3ccccc3)cc2)Oc2ccc(NC(=O)CCCCCC(=O)Nc3ccccc3N)cc2CC1=O, the max activity is reported as -48.9% (inactive).
For C[C@@H]1CN([C@@H](C)CO)C(=O)c2cc(NC(=O)Cc3cn(C)c4ccccc34)ccc2O[C@H]1CN(C)Cc1ccc(C(=O)Nc2ccccc2N)cc1, the max activity was -0.192% (inactive).
For COc1ccc(C#Cc2cnc3c(c2)C(=O)N([C@H](C)CO)C[C@H](C)[C@H](CN(C)Cc2ccccc2)O3)cc1OC, the max activity was 15.6% (inactive).
For C[C@H]1CN([C@@H](C)CO)C(=O)Cc2cc(NC(=O)CCCCCC(=O)Nc3ccccc3N)ccc2O[C@@H]1CN(C)Cc1ccc(Oc2ccccc2)cc1, the max activity was -15.5% (inactive).
In the case of N#C[C@@H]1[C@@H](c2ccccc2-c2cccc(F)c2)[C@H](CO)N1C(=O)NC1CCCC1, the max activity is reported as 11.6% (inactive).
For C[C@@H]1CN([C@H](C)CO)C(=O)c2cc(NC(=O)Nc3cccc4ccccc34)ccc2O[C@@H]1CN(C)Cc1ccc(C(=O)Nc2ccccc2N)cc1, the max activity was 13.3% (inactive).
With C[C@@H]1CN([C@H](C)CO)C(=O)c2cccc(NC(=O)Nc3ccc4c(c3)OCO4)c2O[C@H]1CN(C)Cc1ccc(C(=O)Nc2ccccc2N)cc1 the max activity was -9.22% (inactive).
For C[C@@H]1CN([C@H](C)CO)C(=O)c2cc(NC(=O)Cc3cn(C)c4ccccc34)ccc2O[C@@H]1CN(C)Cc1ccc(C(=O)Nc2ccccc2N)cc1, the max activity was -0.539% (inactive).
In the case of C[C@H](CO)N1C[C@H](C)[C@H](CN(C)Cc2ccc(C(=O)Nc3ccccc3N)cc2)Oc2ccc(NC(=O)Cc3cn(C)c4ccccc34)cc2C1=O, the max activity is reported as 12.2% (inactive).
For O=C(C[C@H]1CC[C@@H]2[C@H](COC[C@@H](O)CN2Cc2ccc(Oc3ccccc3)cc2)O1)N1CCCCC1, the max activity was 14% (inactive).
For N#C[C@H]1[C@@H](c2ccc(-c3cccc(F)c3)cc2)[C@H](CO)N1C(=O)NC1CCCC1, the max activity was 9.12% (inactive).

Test system: C2C12 myotubes ATP, CellTiter-Glo luminescence, 48 h
Assay: as above
Conditions: not given
In the case of N#C[C@@H]1[C@@H](c2ccc(-c3cccc(F)c3)cc2)[C@H](CO)N1C(=O)NC1CCCC1, the AC40 is reported as > 21 µM (inactive).
With COc1ccc(S(=O)(=O)Nc2ccc3c(c2)CC(=O)N([C@H](C)CO)C[C@H](C)[C@@H](CN(C)Cc2ccc(Cl)c(Cl)c2)O3)cc1 the AC40 was > 19.5 µM (inactive).
In the case of C[C@H]1CN([C@@H](C)CO)C(=O)c2cc(NC(=O)Nc3cccc4ccccc34)ccc2O[C@H]1CN(C)Cc1ccc(C(=O)Nc2ccccc2N)cc1, the AC40 is reported as > 19.5 µM (inactive).
For C[C@H](CO)N1C[C@H](C)[C@H](CN(C)CC2CCCCC2)Oc2ccc(NC(=O)CCCCCC(=O)Nc3ccccc3N)cc2CC1=O, the AC40 was > 19.5 µM (inactive).
With C[C@H](CO)N1C[C@H](C)[C@@H](CN(C)Cc2ccc(Cl)c(Cl)c2)Oc2ccc(NC(=O)C3CC3)cc2CC1=O the AC40 was > 19.5 µM (inactive).
With C[C@@H]1CN([C@@H](C)CO)C(=O)c2cc(NC(=O)Nc3cccc4ccccc34)ccc2O[C@@H]1CN(C)Cc1ccc(C(=O)Nc2ccccc2N)cc1 the AC40 was > 21 µM (inactive).
With COc1ccc(CN(C)C[C@H]2Oc3ccc(NS(=O)(=O)c4ccc(Cl)cc4)cc3CC(=O)N([C@@H](C)CO)C[C@@H]2C)cc1 the AC40 was > 19.5 µM (inactive).
In the case of C[C@H]1CN([C@@H](C)CO)C(=O)Cc2cc(NC(=O)CCCCCC(=O)Nc3ccccc3N)ccc2O[C@H]1CN(C)Cc1ccccc1, the AC40 is reported as 18 µM (inactive).
For C[C@H]1CN([C@@H](C)CO)C(=O)c2cc(C#Cc3ccncc3)cnc2O[C@@H]1CN(C)CC1CCCC1, the AC40 was > 19.5 µM (inactive).
